Measured values published in patent US7378387B2, “Method of suppressing immune response by reducing intracellular content of glutathione in macrophages and monocytes” (Ajinomoto Co., Inc., priority 1997, dated 2008).

Experiments:
[1] = tested on: macrophage-like cells from tissues of rheumatoid arthritis patients; test: Intracellular GSH by ACAS in macrophage-like cells from tissues of rheumatoid arthritis patients (Example 17); type: cell-based, human; settings: 3 hours; for relative ratio of oxidative macrophages (reduced amount of intracellular glutathione) compared with saline-added group: added at 2 mM
Method: Synovial tissue was aseptically sampled from tissues resected during joint surgery. The sampled synovial tissue was rinsed in phosphate buffer, from which the surface was peeled off in a petri dish containing the same phosphate buffer. Then, the resulting synovial tissue was cut into pieces with a pair of scissors. To the pieces were added 2% hyaluronidase (manufactured by Sigma), 0.2% DNase (derived from bovine pancreas) and 5% collagenase, for enzymatic treatment at 37° C. for 2 hours. After discarding the resulting debris, a cell fraction recovered by centrifugation was adjusted to 5×10^5 cells/ml in a phenol red-free DMEM culture medium supplemented with 10% FCS (manufactured by Nikken Biology Co.). For 3 hours, the cells were allowed to adhere to the plastic surface. Plastic surface adherent macrophage-like cells harvested with a rubber policeman were then subjected to rinsing in combination with centrifugation three times using the culture medium under ice cooling. The resulting cells were designated as synovial tissue-derived macrophages and were then subjected to the following experiments.
By the same manner as in Example 3, macrophage-like cells were collected from tissues of rheumatoid arthritis patients, and were then suspended and adjusted in a phenol red-free RPMI 1640 culture medium supplemented with 10% fetal calf serum to 3×10^6 cells/ml. The suspension was divided in 100-μl portions on Lab-Tek Chamber Slide (#136439; manufactured by NUNC, CO.), for culturing in 5% CO2 at 37° C. for 3 hours; after discarding the nonadherent cells, the 200-μl serum-free culture medium further containing any of the following chemical agents was fed to the resulting culture, for reaction for 3 hours; and then, the resulting culture was rinsed three times, followed by addition of the serum-free culture medium of 200 μl and addition of monochlorobimane to a final concentration of 10 μM, for reaction for 30 minutes. The amount of intracellular GSH was assayed by imaging analysis with an ACAS system (manufactured by Meridian Co.).

[2] = tested on: IL-12; test: IL-12 production of MΦ from JaK3 knock out mice (Example 6); type: in vivo; settings: stimulation of LPS or IFNγ; 1 mg/ml in city water, 24 days; no production in control group
Method: The amount of IL-12 was determined through bioassay using cells of human T cell strain 2D6 (J. Leukocyte Biology, vol. 61, p. 346, 1997).
2D6 cells which had been incubated in an RPMI 1640 medium containing 500 pg/ml of recombinant human IL-12, 50 μM of 2-mercaptoethanol and 10% FCS (fetal calf serum) were moved to a tube, and centrifugally washed three times with the above-mentioned medium without IL-12 and cell density was adjusted to 1×10^5/ml. The cell suspension was added in an amount of 100 μl each to a 96-well flat bottom plate containing a sample serially diluted in advance with an RPMI 1640 medium containing 50 μM of 2-mercaptoethanol and 10% FCS in an amount of 100 μl each. […] The cells a harvested, and the radioactivity was measured using a β counter (Matrix 96, supplied by Packard).
(§1) Macrophages (MΦ) were prepared from knock out mice deficient in a molecule participating in a signal transduction system from a receptor, and the function of the redox system was analyzed. […]
(§2) Peritoneal cells were harvested from three groups of knock out mice, and stimulated with LPS, IL-2, IFNγ and a combination thereof. The NO production, the IL-6 production and the IL-12 production were measured. […] Then, the IL-6 production was analyzed. In LPS stimulation, the amount was detected as 962 pg/ml in the knock out mice derived MΦ culture, 122 pg/ml in the NAC group, and 82 pg/ml in the GSH-OEt group. […]

[3] = tested on: reductive glutathione in MΦ; test: GSH content in MΦ of JaK3 knock out mice by ACAS after free intake in city water (Example 6); type: in vivo; settings: free intake of city water containing 1 mg/ml, 24 days
Method: Three-hundred microliters of a cell suspension adjusted concentration of 3×10^5 cells/ml in an RPMI 1640 medium (phenol red-free) were charged into a chambered coverglass (#136439, supplied by Nunc), and incubated at 37° C. for 2 hours using a CO2 incubator. The culture solution was washed with the medium, and 300 μl of monochlorobimane (supplied by Molecular Plobe) adjusted to 10 μM in the same medium were added thereto. The mixture was charged into a CO2 incubator of 37° C., and the reaction was conducted for 30 minutes. The fluorescent intensity was measured with ACAS. In ACAS, a UV laser was used.
Macrophages (MΦ) were prepared from knock out mice deficient in a molecule participating in a signal transduction system from a receptor, and the function of the redox system was analyzed. […] Methods applied in Example 2 was repeated. JaK3 knock out mice were divided into three groups. A control group was a group of usual city water free-intake. An NAC group was a group of free intake of city water containing 1 mg/ml of NAC. A GSH-OEt group was a group of free intake of city water containing 1 mg/ml of GSH-OEt. […]
Peritoneal cells of knock out mice which had undergone the respective treatments were harvested, and the GSH content in the cells was analyzed using ACAS with MCB. […]

[4] = tested on: IL-6; test: IL-6 production of MΦ from JaK3 knock out mice (Example 6); type: in vivo; settings: LPS stimulation; 1 mg/ml in city water, 24 days; control knock out mice 962 pg/ml
Method: A stimulator was added to 1×10^6 MΦ, and the incubation was conducted at 37° C. for 2 days in a CO2 incubator. After centrifugation, the culture supernatant was collected.
The amount of IL-6 was determined using IL-6 dependent mouse hybridoma MH60 cells (J. Eur. Immunol., vol. 18, p. 951, 1988). One hundred microliters of the culture supernatant were added to 100 μl of the MH60 cell suspension adjusted to 1×10^5 cells/ml in a 10% FCS-containing RPMI medium, and the mixed solution was incubated at 37° C. for 2 days in a CO2 incubator. […] Immediately after the dissolution, an absorbance of 570 nm was measured with an immunometer (supplied by Bio-Rad).
as §1, §2

Row | SMILES | induction of oxidative macrophage with the reduced amount of intracellular glutathione ([1]; added at 2 μM) | relative ratio of oxidative macrophages (reduced amount of intracellular glutathione) compared with saline-added group [1] | relative ratio of oxidative macrophages (reduced amount of intracellular glutathione) compared with saline-added group ([1]; listed as glutathione ethyl ester) | amount of IL-12 [2] [pg/mL] | content of reductive glutathione in MΦ in comparison with control mice [3] | IL-6 production [4] [pg/mL]
1 | COC(=O)[C@H](CSSC[C@H](NC(C)=O)C(=O)OC)NC(C)=O [(NAC-OMe)2, N,N′-diacetylcystine dimethyl ester] | confirmed | – | – | – | – | –
2 | CCOC(=O)CNC(=O)[C@H](CS)NC(=O)CC[C@H](N)C(=O)O [GSH-OEt, glutathione monoethyl ester] | – | same action was also observed | decreased | 610 | markedly increased | 82
3 | CC(=O)N[C@@H](CS)C(=O)O [NAC, N-acetylcysteine, reference compound] | – | – | – | 420 | markedly increased | 122
